Experiments:
LRRK2 = biological target: T1, LRRK2 (Homo sapiens, UniProt Q5S007); assay: LRRK2 inhibition enzymatic assay (Adapta, ThermoFisher); format: biochemical; conditions: for inhibition at 10 µM: read-out: LRRK2 enzyme inhibition at 10 μM
T1 construct: purchased ThermoFisher (assay run by the company)

BACE1 = BACE1 (Homo sapiens, UniProt P56817); assay: BACE1 enzymatic assay (FRET); format: biochemical; conditions: for inhibition at 10 µM: read-out: BACE1 enzyme inhibition at 10 μM
Description: BACE1 enzymatic assay. BACE1 in vitro assays were carried out using FRET.
μM) carrying the Swedish mutation and containing a rhodamine as a fluorescence donor and a quencher acceptor at each end was used. The intact substrate is weakly fluorescent and becomes highly fluorescent upon enzymatic cleavage.
The assays were conducted in 50 mM sodium acetate buffer, pH 4.5, in a final

CK1δ = CK1δ (Homo sapiens, UniProt P48730); assay: CK1δ inhibition enzymatic assay (Kinase-Glo); format: biochemical
Sequence of CK1δ (P48730 whole entry): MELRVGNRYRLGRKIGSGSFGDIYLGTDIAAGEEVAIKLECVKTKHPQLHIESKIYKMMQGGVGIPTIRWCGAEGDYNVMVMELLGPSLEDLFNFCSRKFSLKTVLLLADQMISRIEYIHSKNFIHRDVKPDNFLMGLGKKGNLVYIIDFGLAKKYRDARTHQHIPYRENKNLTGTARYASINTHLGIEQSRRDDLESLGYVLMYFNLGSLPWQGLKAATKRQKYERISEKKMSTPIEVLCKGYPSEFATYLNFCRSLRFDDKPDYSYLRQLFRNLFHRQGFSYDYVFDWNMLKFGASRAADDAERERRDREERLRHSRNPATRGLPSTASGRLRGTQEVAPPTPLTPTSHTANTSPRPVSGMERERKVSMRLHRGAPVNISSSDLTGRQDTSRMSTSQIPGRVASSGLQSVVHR
Description: CK1δ inhibition enzymatic assay. The “Kinase-Glo” Kit from Promega was used to screen compounds for activity against CK1δ Kinase-Glo assays were performed in assay buffer using black 96-well plates. In a typical assay, 10 μl of test compound (dissolved in DMSO at 1 mM concentration and diluted in advance in assay buffer to the desired concentration) 10 μl (16 ng) of enzyme were added to each well followed by 20 µl of assay buffer containing 0,1 % casein as substrate […]
exceed 1%. After 60-min incubation at 30°C the enzymatic reaction was stopped […]
with 40 μl of Kinase-Glo reagent. Glow-type luminescence was recorded after 10 min using a FLUOstar Optima (BMG Labtechnologies GmbH, Offenburg, Germany) multimode reader. The activity is proportional to the difference of the total and consumed ATP. The inhibitory activities were calculated on the basis of maximal activities measured in the absence of inhibitor. The IC50 was defined as the concentration of each compound that reduces a 50% the enzymatic activity with respect to that without inhibitors. […]
Ibérica SAU). Kinase-Glo Luminescent Kinase Assay was obtained from Promega (Promega Biotech Ibérica, SL). ATP and all other reagents were from Sigma Aldrich (St. Louis, MO). Assay buffer contained 50 mM HEPES (pH 7.5), 1 mM EDTA, 1 mM EGTA, and 15 mM magnesium acetate. […]

SK-APP cells [1] = assay: Cell viability (MTT) in SK-APP cells; format: cell-based, human; conditions: 10 μM, 48 hours
Description: (§1) page 35: enzyme concentration (1 U/mL). Inhibitor screening at 10 μM. The mixture was incubated for 60 min at 25 °C under dark conditions and then stopped with 2.5 M sodium acetate. Fluorescence was measured with a FLUOstar Optima (BMG Labtechnologies GmbH, Offenburg, Germany) microplate reader at 545 nm excitation and 585 nm emission. Evaluation of BACE Inhibitors Kinetics. To evaluate the mechanism of BACE1 inhibition of the compounds, substrate-dependent kinetic experiments were performed. BACE activity were measured at five different concentrations substrate (1000 -62,5 μM) in the absence or presence of the select inhibitor at two different concentrations. The results are presented as double reciprocal Lineweaver-Burk plots (1/V vs 1/[S]) Figure S1. Cell culture and treatments. […] The absorbance values were determined at 590 nm. Cell viability was expressed as a percent of OD of control cells, the value of which was defined as 100%. […] Absorbance was measured using a Varioskan Flash multiplate reader (Thermo Scientific) at test 550 nm and reference 664 nm wave-lengths. […] Levels of Aβ40 and Aβ42 were quantified by sandwich ELISAs (Wako, Osaka, Japan) from cellular lysates and conditioned media collected. […] Compounds to be determined their ability to pass the brain barrier (0.5-1 mg) were dissolved in 250 μL of DMSO and 4750 μL of PBS pH 7.4 was carefully added to afford a final […]

PAMPA-BBB test = format: in vitro ADME; conditions: for Papp at 2.5 h: read-out: Pe exp
Description: dissolved in 250 µL of DMSO (Sigma-Aldrich). 25 µL of these compound stock
solutions were taken and 225 µL of DMSO and 4750 µL of PBS pH 7.4 buffer
compound concentration in the range of 0.2 to 1.1 mM. Compounds to be
µL of DMSO and 4750 µL of PBS pH 7.4 was carefully added to afford a final
compound concentration in the range of 0.2 to 1.1 mM. Solutions were filtered
using filter PDVF membrane units (diameter 30 mm, pore size 0.45 μm, Symta).
10 µL of each solution were taken and diluted 10-fold with PBS/DMSO (95/5) for
HPLC-MS analysis. The acceptor 96-well plate (Multiscreen®, catalog no.
MAMCS9610, Millipore) was filled with 180 µL of PBS/DMSO (95/5). The donor
96-well plate (Multiscreen® IP Sterile Plate PDVF membrane, pore size is 0.45
M, catalog no. MAIPS4510, Millipore) was coated with 4 µL 20 mg·mL-1 of
for 5 min and then 180 µL of each compound solution was added. Then the donor
plate was put on the acceptor plate and kept for 2.5 h at room temperature. After
incubation, samples were collected from the acceptor plate and diluted 10-fold
with PBS/DMSO (95/5) for HPLC-MS analysis and compared to HPLC-MS of
initial solutions. Absorbance peak of each compound was determined by MS
detection and was used to calculate the concentration of compounds and
Every sample was analysed in two independent
runs. HPLC-MS was performed using a HPLC-MS equipment from Thermo
Fisher coupled to a Finnigan TM LXQ TM detector. Each compound was
analysed using a Sunfire column C18, 3.5 μm (50 mm x 4.6 mm) and acetonitrile
and Milli-Q water (with 0.1% formic acid) as mobile phase. The standard gradient

Human recombinant GSK3β = biological target: T2, Human recombinant GSK3β (Homo sapiens, UniProt P49841); assay: GSK3β inhibition enzymatic assay (Kinase-Glo); format: biochemical
T2 construct: purchased Millipore (Millipore Ibérica SAU)
T2 sequence (P49841 whole entry): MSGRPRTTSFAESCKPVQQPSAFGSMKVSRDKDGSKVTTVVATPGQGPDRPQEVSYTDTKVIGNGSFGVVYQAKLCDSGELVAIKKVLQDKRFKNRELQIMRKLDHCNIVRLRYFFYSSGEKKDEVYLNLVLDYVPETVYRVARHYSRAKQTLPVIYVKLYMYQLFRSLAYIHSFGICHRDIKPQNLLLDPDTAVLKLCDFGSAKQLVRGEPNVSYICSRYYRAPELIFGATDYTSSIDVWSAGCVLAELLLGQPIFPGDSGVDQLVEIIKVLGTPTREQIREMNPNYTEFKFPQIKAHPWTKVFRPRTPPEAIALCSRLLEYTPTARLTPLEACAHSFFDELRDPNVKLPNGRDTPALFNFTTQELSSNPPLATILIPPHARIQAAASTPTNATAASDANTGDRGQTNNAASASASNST
Description: GSK3β inhibition enzymatic assay. Human recombinant GSK3β and the pre-phosphorylated polypeptide substrate were purchased from Millipore (Millipore Ibérica SAU). Kinase-Glo Luminescent Kinase Assay was obtained from Promega (Promega Biotech Ibérica, SL). ATP and all other reagents were from Sigma Aldrich (St. Louis, MO). Assay buffer contained 50 mM HEPES (pH 7.5), 1 mM EDTA, 1 mM EGTA, and 15 mM magnesium acetate.
Kinase-Glo assays were performed in assay buffer using black 96-well plates. In a typical assay, 10 μL (10 μM) of test compound (dissolved in DMSO) at 1 mM concentration and diluted in advance in assay buffer to the desired concentration) and 10 μL (20 ng) of enzyme were added to each well followed by 20 μL of assay buffer containing 25 μM substrate and 1 μM ATP. The final DMSO concentration […]
After 30 min incubation at 30 °C, the enzymatic reaction was stopped with 40 μL of Kinase-Glo reagent. Glow-type luminescence was recorded after 10 min using a FLUOstar Optima (BMG
Labtechnologies GmbH, Offenburg, Germany) multimode reader. The activity is proportional to the difference of the total and consumed ATP. The inhibitory activities were calculated based on maximal activities measured in the absence of inhibitor. The IC50 was defined as the concentration of each compound that reduces a 50 % the enzymatic activity with respect to that without inhibitors. […]

SK-APP cells [2] = assay: Aβ40 and Aβ42 levels in SK-APP cells (sandwich ELISA); format: cell-based, human; conditions: 10 μM, 48 h treatment
Description: page 35: enzyme concentration (1 U/mL). Inhibitor screening at 10 μM. The mixture was incubated for 60 min at 25 °C under dark conditions and then stopped with 2.5 M sodium acetate. Fluorescence was measured with a FLUOstar Optima (BMG Labtechnologies GmbH, Offenburg, Germany) microplate reader at 545 nm excitation and 585 nm emission. Evaluation of BACE Inhibitors Kinetics. To evaluate the mechanism of BACE1 inhibition of the compounds, substrate-dependent kinetic experiments were performed. BACE activity were measured at five different concentrations substrate (1000 -62,5 μM) in the absence or presence of the select inhibitor at two different concentrations. The results are presented as double reciprocal Lineweaver-Burk plots (1/V vs 1/[S]) Figure S1. Cell culture and treatments. SK-N-MC cells stably expressing the human isoform APP695 (SK-APP cell line […]1) were generated by transfection of SK-N-MC cells with a pCDNA3-APP expression vector, and kindly provided by Dr. MJ Bullido. These cells were cultured in DMEM (Thermo Fisher) medium supplemented with 10% FBS (Thermo Fisher), 1 mM glutamine (Sigma- Aldrich), and 100 unit/ml penicillin (Lonza) and […] streptomycin (Lonza). Cell cultures were maintained in a 5% CO2, humidified atmosphere at 37 °C. SH-SY5Y cells were obtained from the American Type Culture Collection and grown in DMEM media (Gibco), supplemented with 10% foetal bovine serum, and 1% penicillin/streptomycin (Invitrogen). The cells were grown at 37 °C in a humidified 5% CO2 atmosphere. For the treatments, all the compounds were dissolved in dimethyl sulfoxide (DMSO, from Sigma) at an initial stock concentration of 10 mM. […] working solutions were obtained from the dilution of the stock solutions in DMEM media (DMSO control solutions were prepared similarly to the compounds). Okadaic acid (OA, Sigma-Aldrich) was dissolved in DMSO at an initial stock concentration of 60 μM and a 250X working solution was obtained from the dilution of the stock solution in DMEM. All the compounds (250x solutions) were added directly into the wells at the indicated final concentrations for 1 hour before the treatment with OA at a final concentration of 30 nM. DMSO was added at the appropriate concentration to the 34 page 36: control-untreated cells. The cells were maintained in the presence of the OA and the different compounds for 24h. Measurement of cell viability. Cell viability assays were carried out using a 3- […] (Sigma-Aldrich) in 96-well cell culture plates. All cells were then incubated with a 0.5 mg/ml MTT solution (Sigma-Aldrich) at 37 °C for 4 h and then with cell lysis […] The absorbance values were determined at 590 nm. Cell viability was expressed as a percent of OD of control cells, the value of which was defined as 100%. Cell viability in SH-SY5Y were carried out following the same procedure but seeding the cells in 24 well multiplates. Absorbance was measured using a Varioskan Flash multiplate reader (Thermo Scientific) at test 550 nm and reference 664 nm wave-lengths. Compound concentration for SK-APP line was 10 μM and for the SH-SY5Y was 1 and 5 μM. Immunoassays. Levels of Aβ40 and Aβ42 were quantified by sandwich ELISAs (Wako, Osaka, Japan) from cellular lysates and conditioned media collected. CNS penetration: in vitro PAMPA-BBB test. Prediction of the brain penetration was evaluated using a parallel artificial membrane permeability assay (PAMPA).1 Nine quality control compounds (mentioned below) of know BBB permeability were included in each experiment to validate the analysis set.2 Commercial drugs […] dissolved in 250 μL of DMSO (Sigma-Aldrich). 25 μL of these compound stock solutions were taken and 225 μL of DMSO and 4750 μL of PBS pH 7.4 buffer were added to reach 5% of DMSO concentration in the experiment and a final […] Compounds to be determined their ability to pass the brain barrier (0.5-1 mg) were dissolved in 250 μL of DMSO and 4750 μL of PBS pH 7.4 was carefully added to afford a final […]

SH-SY5Y cells = assay: Okadaic acid-induced cell death model, viability of SH-SY5Y cells; format: cell-based, human; conditions: OA 30 nM, 24 h, compound 1 and 5 µM
Description: as §1

[3] = parameters: method as in earlier work; conditions: PAMPA-BBB reported permeability ref 2; cited from earlier work
[4] = PAMPA-BBB, PBS pH 7.4/DMSO 95/5, 2.5 h, room temperature

T1 sequence (Q5S007 whole entry): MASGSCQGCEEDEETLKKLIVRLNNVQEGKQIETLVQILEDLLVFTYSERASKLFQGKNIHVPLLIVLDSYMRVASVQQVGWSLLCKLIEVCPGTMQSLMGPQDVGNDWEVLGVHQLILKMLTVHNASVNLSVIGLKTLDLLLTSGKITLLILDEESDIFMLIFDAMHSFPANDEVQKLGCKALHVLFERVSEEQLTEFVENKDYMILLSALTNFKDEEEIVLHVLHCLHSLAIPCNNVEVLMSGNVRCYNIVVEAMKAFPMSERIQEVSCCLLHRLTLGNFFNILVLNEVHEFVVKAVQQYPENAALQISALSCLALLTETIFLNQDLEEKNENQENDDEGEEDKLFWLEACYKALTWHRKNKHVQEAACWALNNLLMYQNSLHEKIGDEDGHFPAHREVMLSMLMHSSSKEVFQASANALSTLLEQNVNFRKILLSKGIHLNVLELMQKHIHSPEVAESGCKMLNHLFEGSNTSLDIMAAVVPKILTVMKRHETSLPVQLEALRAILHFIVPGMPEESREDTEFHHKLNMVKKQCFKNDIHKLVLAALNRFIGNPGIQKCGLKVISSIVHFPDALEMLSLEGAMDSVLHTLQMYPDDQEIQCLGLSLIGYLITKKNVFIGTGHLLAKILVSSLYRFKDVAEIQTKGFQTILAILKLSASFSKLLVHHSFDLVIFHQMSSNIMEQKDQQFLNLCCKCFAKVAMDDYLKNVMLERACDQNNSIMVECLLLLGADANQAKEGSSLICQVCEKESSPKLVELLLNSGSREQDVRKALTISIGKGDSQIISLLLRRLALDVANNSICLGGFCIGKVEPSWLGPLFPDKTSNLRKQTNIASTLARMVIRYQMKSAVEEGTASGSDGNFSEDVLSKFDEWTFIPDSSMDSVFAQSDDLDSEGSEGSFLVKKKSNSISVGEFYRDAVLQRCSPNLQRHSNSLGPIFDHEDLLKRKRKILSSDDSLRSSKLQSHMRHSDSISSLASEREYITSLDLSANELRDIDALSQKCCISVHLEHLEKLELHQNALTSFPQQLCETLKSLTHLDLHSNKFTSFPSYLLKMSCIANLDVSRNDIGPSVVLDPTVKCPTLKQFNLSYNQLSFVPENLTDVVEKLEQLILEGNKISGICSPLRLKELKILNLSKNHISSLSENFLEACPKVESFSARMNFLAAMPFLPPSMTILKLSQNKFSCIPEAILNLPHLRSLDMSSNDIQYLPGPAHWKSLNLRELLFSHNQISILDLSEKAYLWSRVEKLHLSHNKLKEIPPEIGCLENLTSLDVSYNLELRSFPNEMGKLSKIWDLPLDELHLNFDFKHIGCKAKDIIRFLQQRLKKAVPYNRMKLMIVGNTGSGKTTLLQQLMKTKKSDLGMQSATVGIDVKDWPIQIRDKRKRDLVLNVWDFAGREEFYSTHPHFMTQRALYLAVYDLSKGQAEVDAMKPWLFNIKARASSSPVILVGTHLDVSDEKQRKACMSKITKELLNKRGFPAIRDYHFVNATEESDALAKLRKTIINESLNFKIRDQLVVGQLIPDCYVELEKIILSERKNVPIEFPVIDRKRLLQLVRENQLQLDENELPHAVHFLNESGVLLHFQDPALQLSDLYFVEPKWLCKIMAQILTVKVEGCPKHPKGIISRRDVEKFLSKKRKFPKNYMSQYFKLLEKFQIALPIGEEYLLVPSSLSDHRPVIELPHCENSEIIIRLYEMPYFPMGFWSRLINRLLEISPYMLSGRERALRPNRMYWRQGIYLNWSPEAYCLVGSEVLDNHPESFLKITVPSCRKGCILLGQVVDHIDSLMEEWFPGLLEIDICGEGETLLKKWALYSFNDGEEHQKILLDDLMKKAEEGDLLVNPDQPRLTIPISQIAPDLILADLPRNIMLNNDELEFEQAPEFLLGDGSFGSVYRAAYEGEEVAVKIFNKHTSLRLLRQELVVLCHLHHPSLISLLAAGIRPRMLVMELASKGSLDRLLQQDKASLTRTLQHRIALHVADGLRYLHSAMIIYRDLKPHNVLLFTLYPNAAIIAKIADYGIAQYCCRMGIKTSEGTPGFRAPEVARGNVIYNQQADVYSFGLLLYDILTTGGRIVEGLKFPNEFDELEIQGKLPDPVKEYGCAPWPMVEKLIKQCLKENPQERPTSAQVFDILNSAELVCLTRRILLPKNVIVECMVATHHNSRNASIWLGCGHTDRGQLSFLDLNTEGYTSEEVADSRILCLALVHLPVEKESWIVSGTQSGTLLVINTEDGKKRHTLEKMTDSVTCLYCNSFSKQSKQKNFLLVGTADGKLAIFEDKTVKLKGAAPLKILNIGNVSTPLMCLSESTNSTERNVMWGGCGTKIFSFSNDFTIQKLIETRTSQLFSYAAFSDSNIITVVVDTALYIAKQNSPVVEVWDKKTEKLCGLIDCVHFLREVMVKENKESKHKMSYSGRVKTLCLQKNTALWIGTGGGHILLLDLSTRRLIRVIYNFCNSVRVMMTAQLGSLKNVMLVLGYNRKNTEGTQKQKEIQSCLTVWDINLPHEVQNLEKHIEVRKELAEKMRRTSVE
Sequence of BACE1 (P56817 46-501): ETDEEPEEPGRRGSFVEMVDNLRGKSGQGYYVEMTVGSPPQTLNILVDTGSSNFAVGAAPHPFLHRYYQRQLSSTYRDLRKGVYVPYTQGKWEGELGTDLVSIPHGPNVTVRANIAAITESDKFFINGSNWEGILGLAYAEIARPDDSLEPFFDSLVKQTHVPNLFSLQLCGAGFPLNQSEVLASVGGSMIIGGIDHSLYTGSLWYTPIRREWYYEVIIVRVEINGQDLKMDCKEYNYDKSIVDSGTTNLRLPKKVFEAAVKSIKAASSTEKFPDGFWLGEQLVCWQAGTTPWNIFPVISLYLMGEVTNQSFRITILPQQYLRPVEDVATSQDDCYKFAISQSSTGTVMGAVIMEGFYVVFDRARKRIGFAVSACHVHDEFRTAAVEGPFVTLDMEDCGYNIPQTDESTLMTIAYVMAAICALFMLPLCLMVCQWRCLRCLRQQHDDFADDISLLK

`O=C1Nc2ccccc2/C1=N/c1ccc(OCc2cn(Cc3ccc(C(=O)Nc4nc5ccccc5s4)cc3)nn2)cc1` [compound 32] gave an inhibition at 10 µM (LRRK2) of 54% and an inhibition at 10 µM (BACE1) of under 20%.
`O=C(Cc1ccc(Cn2cc(COc3ccc(C(=O)Nc4nc5ccccc5s4)cc3)nn2)cc1)Nc1nc2ccccc2s1` [compound 17] showed an IC50 (LRRK2) of 7090 ± 2220 nM, an inhibition at 10 µM (CK1δ; read-out: CK1δ enzyme inhibition at 10 μM) of 26% and an IC50 (BACE1) of 2510 ± 430 nM. The “Cell viability of SK-APP cells” value (SK-APP cells [1]) was “significant decrease” and the “Solubility in the conditions of the PAMPA experiment” value (PAMPA-BBB test; PBS pH 7.4 with 5% DMSO) was “insoluble”.
Work on `O=C(Nc1nc2ccccc2s1)c1ccc(CCn2cc(COc3ccc(C(=O)Nc4nc5ccccc5s4)cc3)nn2)cc1` [compound 33] yielded an inhibition at 10 µM (LRRK2) of 98% and an inhibition at 10 µM (BACE1) of under 20%.
`CCn1sc(=O)n(Cc2cn(Cc3ccc(C(=O)Nc4nc5ccccc5s4)cc3)nn2)c1=O` [compound 14] showed an IC50 (LRRK2) of 820 ± 140 nM, an IC50 (Human recombinant GSK3β) of 2360 ± 270 nM and an IC50 (BACE1) of 3310 ± 270 nM. For the same molecule, the “Aβ42 levels in cellular lysates (intracellular)” value (SK-APP cells [2]) was “unchanged”, the “Aβ42 levels in extracellular fluid” value (SK-APP cells [2]) was “significant decrease” and the “Neuroprotection against okadaic acid (OA) toxicity” value (SH-SY5Y cells) was “rescue from the toxic effect of OA”. The CNS prediction (PAMPA-BBB test; PAMPA-BBB) was “CNS- (CNS‐ (red) for compounds with Pe <1.88×10^−6 cm s^−1)” and the Pe exp (PAMPA-BBB test; [4]) was 0 10-6 cm s-1.
Molecule `CCn1sc(=O)n(Cc2ccccc2)c1=O` [MBC-2138, reference compound] has an IC50 (Human recombinant GSK3β) of 530 ± 30 nM and an IC50 (BACE1) of over 20000 nM.
With `Cn1c(=O)c2c(ncn2C)n(C)c1=O` [Caffeine, caffeine, reference compound] the Papp at 2.5 h (PAMPA-BBB test; [4]) was 1.45 ± 0.26 ×10⁻⁶ cm/s.
For `CN1C(C(=O)Nc2ccccn2)=C(O)c2ccccc2S1(=O)=O` [Piroxicam, piroxicam, reference compound], the Papp at 2.5 h (PAMPA-BBB test; [4]) is given as 2.92 ± 0.37 ×10⁻⁶ cm/s and the “Pe Bibl.” value [3] is given as 2.5 10-6 cm s-1.
Work on `O=C(Cc1ccccc1)Nc1nc2ccccc2s1` [MBC-858, reference compound] yielded an IC50 (CK1δ) of 330 ± 30 nM and an IC50 (BACE1) of over 20000 nM.
For `CN(C)CCCN1c2ccccc2Sc2ccccc21` [Promazine, promazine, reference compound], the Papp at 2.5 h (PAMPA-BBB test; [4]) is listed as 5.18 ± 0.43 ×10⁻⁶ cm/s and the “Pe Bibl.” value [3] is listed as 8.8 10-6 cm s-1.

From article PMC8457121, “From Kinase Inhibitors to Multitarget Ligands as Powerful Drug Leads for Alzheimer's Disease using Protein‐Templated Synthesis” (Angewandte Chemie (International Ed. in English), 2021)
